From ChEMBL document CHEMBL2016493, “Design, synthesis, synergistic antimicrobial activity and cytotoxicity of 4-aryl substituted 3,4-dihydropyrimidinones of curcumin” (Bioorg Med Chem Lett, 2012) come the findings set out here.

The source made the active and inactive calls. The rule behind the calls is not given here.

In experiment [1] the test system is Curvularia lunata. The experiment can be described thus: Antifungal activity against Curvularia lunata MTCC 581 at 160 uM/ml after 48 hrs by paper disc diffusion method. The experiment is classed as functional. Particulars: MTCC 581, 48 h, read-out: IZ. Background: Agar diffusion results depend on both activity and mobility in agar.
Experiment [2] relates to Aspergillus niger. The experiment is described as follows: Antifungal activity against Aspergillus niger MTCC 1108 after 48 hrs by poison food method. Format: functional.
Experiment [3] deals with Curvularia lunata. The experiment can be described thus: Antifungal activity against Curvularia lunata MTCC 581 at 20 uM/ml after 48 hrs by paper disc diffusion method. Format: functional.
The subject of experiment [4] is Aspergillus flavus. The experiment is described as follows: Antifungal activity against Aspergillus flavus MTCC 1021 at 160 uM/ml after 48 hrs by paper disc diffusion method. The experiment is classed as functional.
Experiment [5] deals with Trichoderma viride. The experiment is described as follows: Antifungal activity against Trichoderma viride MTCC 1107 at 20 uM/ml after 48 hrs by paper disc diffusion method. The experiment is classed as functional.
Experiment [6] concerns Curvularia lunata. The experiment can be described thus: Antifungal activity against Curvularia lunata MTCC 581 at 40 uM/ml after 48 hrs by paper disc diffusion method. The experiment is classed as functional.
Experiment [7] has as its system Trichoderma viride. The experiment is described as follows: Antifungal activity against Trichoderma viride MTCC 1107 at 160 uM/ml after 48 hrs by paper disc diffusion method. As to conditions: MTCC 1107, 48 h, read-out: IZ. The experiment is classed as functional.
For experiment [8], the system named is Trichoderma viride. The experiment can be described thus: Antifungal activity against Trichoderma viride MTCC 1107 at 40 uM/ml after 48 hrs by paper disc diffusion method. The experiment is classed as functional.
Experiment [9] has as its system Curvularia lunata. The experiment is described as follows: Antifungal activity against Curvularia lunata MTCC 581 at 80 uM/ml after 48 hrs by paper disc diffusion method. The experiment is classed as functional. As to conditions: MTCC 581, 48 h, read-out: IZ.
The test system of experiment [10] is Aspergillus niger. The experiment can be described thus: Antifungal activity against Aspergillus niger MTCC 1108 at 160 uM/ml after 48 hrs by paper disc diffusion method. The experiment is classed as functional.
For experiment [11], the system named is Trichoderma viride. The experiment is described as follows: Antifungal activity against Trichoderma viride MTCC 1107 at 80 uM/ml after 48 hrs by paper disc diffusion method. The experiment is classed as functional.
For experiment [12], the system named is Burkholderia pseudomallei. The experiment is described as follows: Antibacterial activity against Burkholderia pseudomallei NTCC 10274 at 40 uM/ml after 24 hrs by kirby-bauer method. Format: functional.
Experiment [13] concerns Escherichia coli. The experiment can be described thus: Antibacterial activity against Escherichia coli ATCC 35218 at 160 uM/ml after 24 hrs by kirby-bauer method. Format: functional. As to conditions: ATCC 35218, 24 h, read-out: IZ.
The test system of experiment [14] is Staphylococcus aureus. The experiment is described as follows: Antibacterial activity against Staphylococcus aureus ATCC 11632 at 160 uM/ml after 24 hrs by kirby-bauer method. Format: functional.
The subject of experiment [15] is Pseudomonas aeruginosa. The experiment is described as follows: Antibacterial activity against Pseudomonas aeruginosa ATCC 15499 at 160 uM/ml after 24 hrs by kirby-bauer method. Particulars: ATCC 15499, 24 h, read-out: IZ. The experiment is classed as functional.
In experiment [16] the test system is Pseudomonas aeruginosa. The experiment can be described thus: Antibacterial activity against Pseudomonas aeruginosa ATCC 15499 at 20 uM/ml after 24 hrs by kirby-bauer method. Format: functional.
Experiment [17] has as its system Escherichia coli. The experiment is described as follows: Antibacterial activity against Escherichia coli ATCC 35218 at 80 uM/ml after 24 hrs by kirby-bauer method. Format: functional. As to conditions: ATCC 35218, 24 h, read-out: IZ.
For experiment [18], the system named is Aspergillus flavus. The experiment can be described thus: Antifungal activity against Aspergillus flavus MTCC 1021 after 48 hrs by poison food method MTCC 1021. Format: functional.
Experiment [19] concerns Burkholderia pseudomallei. The experiment is described as follows: Antibacterial activity against Burkholderia pseudomallei NTCC 10274 at 160 uM/ml after 24 hrs by kirby-bauer method. Format: functional. Particulars: NTCC 10274, 24 h, read-out: IZ.
Experiment [20] has as its system QG-56. The experiment can be described thus: Cytotoxicity against human QG56 cells after 48 hrs by MTT assay. Format: functional, cell-based. (In general: Formazan colour is commonly taken as a measure of viable cells.)
The subject of experiment [21] is Salmonella typhimurium. The experiment is described as follows: Antibacterial activity against Salmonella typhimurium ATCC 23564 at 160 uM/ml after 24 hrs by kirby-bauer method. The experiment is classed as functional, Salmonella enterica subsp. enterica serovar Typhimurium. As to conditions: Salmonella enterica, ATCC 23564, 24 h; read-out: IZ.
For experiment [22], the system named is Burkholderia pseudomallei. The experiment can be described thus: Antibacterial activity against Burkholderia pseudomallei NTCC 10274 at 80 uM/ml after 24 hrs by kirby-bauer method. Format: functional. Particulars: NTCC 10274, 24 h, read-out: IZ.
Experiment [23] concerns Salmonella typhimurium. The experiment can be described thus: Antibacterial activity against Salmonella typhimurium ATCC 23564 at 20 uM/ml after 24 hrs by kirby-bauer method. Format: functional. Particulars: Salmonella enterica subsp. enterica serovar Typhimurium.
Experiment [24] concerns Salmonella typhimurium. The experiment can be described thus: Antibacterial activity against Salmonella typhimurium ATCC 23564 at 40 uM/ml after 24 hrs by kirby-bauer method. The experiment is classed as functional, Salmonella enterica subsp. enterica serovar Typhimurium. As to conditions: Salmonella enterica, ATCC 23564, 24 h; read-out: IZ.
Experiment [25] deals with HepG2.
The test system of experiment [26] is Salmonella typhimurium. The experiment is described as follows: Antibacterial activity against Salmonella typhimurium ATCC 23564 at 80 uM/ml after 24 hrs by kirby-bauer method. Format: functional, Salmonella enterica subsp. enterica serovar Typhimurium. Particulars: Salmonella enterica, ATCC 23564, 24 h; read-out: IZ.
The subject of experiment [27] is Pseudomonas aeruginosa. The experiment is described as follows: Antibacterial activity against Pseudomonas aeruginosa ATCC 15499 at 40 uM/ml after 24 hrs by kirby-bauer method. The experiment is classed as functional.
Experiment [28] relates to Escherichia coli. The experiment can be described thus: Antibacterial activity against Escherichia coli ATCC 35218 at 40 uM/ml after 24 hrs by kirby-bauer method. The experiment is classed as functional.
Experiment [29] concerns HCT-116.
Experiment [30] concerns Pseudomonas aeruginosa. The experiment is described as follows: Antibacterial activity against Pseudomonas aeruginosa ATCC 15499 at 80 uM/ml after 24 hrs by kirby-bauer method. The experiment is classed as functional. Particulars: ATCC 15499, 24 h, read-out: IZ.
The test system of experiment [31] is Escherichia coli. The experiment can be described thus: Antibacterial activity against Escherichia coli ATCC 35218 at 20 uM/ml after 24 hrs by kirby-bauer method. Format: functional.
In experiment [32] the test system is Burkholderia pseudomallei. The experiment can be described thus: Antibacterial activity against Burkholderia pseudomallei NTCC 10274 at 20 uM/ml after 24 hrs by kirby-bauer method. The experiment is classed as functional.

With `OC(Cn1cncn1)(Cn1cncn1)c1ccc(F)cc1F` [FLUCONAZOLE], the figures for the zone of inhibition at 160 µM in [1] and in [7] were 31 mm and 32 mm, respectively. In addition, the MIC entry in experiment [2] is “inactive”. Besides, the zone of inhibition at 20 µM in [3] (MTCC 581, 48 h, read-out: IZ) turned out to be 24 mm; in experiment [5] (MTCC 1107, 48 h, read-out: IZ) it was 21 mm. The “inhibition zone (IZ)” value in [4] and in experiment [10] was “inactive” throughout. In addition, the zone of inhibition at 40 µM in experiment [6] (MTCC 581, 48 h, read-out: IZ) came to 27 mm. For the same compound, the zone of inhibition in experiment [8] (MTCC 1107, 48 h, read-out: IZ) worked out at 24 mm. The zone of inhibition at 80 µM in [9] is 28 mm; in experiment [11] (MTCC 1107, 48 h, read-out: IZ), 29 mm.
On to `COc1cc(/C=C/C(=O)CC(=O)/C=C/c2ccc(O)c(OC)c2)ccc1O` [CURCUMIN], for which the “inhibition zone (IZ)” value in experiment [12], in [14], in experiment [16], in experiment [3], in experiment [4] and in experiment [5] was “inactive” each time. In addition, the “inhibition zone (IZ)” value in experiment [6], in experiment [23], in experiment [8], in [27], in experiment [10] and in experiment [28] was “inactive” each time. The “inhibition zone (IZ)” value in experiment [11], in experiment [31] and in experiment [32] was “inactive” throughout. The zone of inhibition at 160 µM in experiment [13] was found to be 10 mm; in [15], 11 mm; in experiment [1] it was 11 mm; in experiment [19], 9 mm; in experiment [21], 12 mm; in experiment [7], 9 mm. The zone of inhibition at 80 µM in experiment [17] amounted to 8 mm; in experiment [22] it was 8 mm; in experiment [26] it was 10 mm; in experiment [9], 9 mm; in [30], 9 mm. Moreover, the MIC result in experiment [18] and in experiment [2] was “inactive” throughout. Further, the IC50 in experiment [20] was 100 uM/ml; in experiment [25], 50 uM/ml; in experiment [29], 50 uM/ml. Also, in experiment [24], the zone of inhibition at 40 µM was 9 mm.
